{"source": "patent US12409167B2", "about": "“Pharmaceutical combination comprising a selective S1P1 receptor agonist” (Vanda Pharmaceuticals Inc., priority 2014, dated 2025)", "key": {"[1]": {"tested_on": "experimental autoimmune encephalomyelitis (EAE)", "assay": "combination efficacy experiment in rat EAE model", "type": "in vivo, Female Lewis rats", "conditions": "FIG. 1, DMF 120 mg/kg q.d., ponesimod 100 mg/kg q.d., from day 0; for effect on clinical course of EAE (clinical score): n=11/group", "method": "FIG. 1: Efficacy of ponesimod, DMF or its combination in rat EAE (n=11/group). Clinical scoring was performed daily by an independent examiner in a blinded manner. SEM=standard error of the mean. Female Lewis rats are immunized with an emulsion of myelin basic protein (MBP) from Guinea pig in complete Freund's adjuvant. A total of 200 micrograms of MBP is injected per rat at two sites subcutaneously (right paw and base of tail). Within 10 days the rats develop signs of paralysis which will be graded on a scale from 0 to 15 assessing the tail and each limb individually according to the method originally described by Weaver A. et al., FASEB J., 2005, 19(12): 1668-1670. The disease takes an acute monophasic course and is self-remitting. Usually by day 21 clinical scores reach values below 3.0. Groups of 10 to 14 rats are dosed starting at the day of disease induction (day 0) with different doses of DMF in the range between 40 and 160 mg/kg once daily (q.d.). Clinical scores are assessed on a daily basis and disease development is compared between vehicle-treated rats and rats receiving DMF (vehicle: 0.5% Methylcellulose/0.5% Tween® 80). In parallel, body weights of the rats are monitored on a daily basis to follow general health. The experiment is terminated at day 21 whereupon hematology can be measured. The combination efficacy experiment is performed in the same rat EAE model as described for the first pilot experiment. It consists of four treatment groups: • 1. Vehicle (0.5% Methylcellulose/0.5% Tween® 80) q.d., from day 0 • 2. DMF (120 mg/kg) q.d., from day 0 • 3. Ponesimod (100 mg/kg) q.d., from day 0 • 4. DMF (120 mg/kg) q.d., from day 0+ponesimod (100 mg/kg) q.d., from day 0 In life and termination endpoints are the same as described for the first pilot experiment."}, "[2]": {"tested_on": "experimental autoimmune encephalomyelitis (EAE)", "assay": "rat monophasic EAE model, DMF pilot experiment", "type": "in vivo, Female Lewis rats", "conditions": "first pilot experiment, dose 120 mg/kg q.d. from day 0", "method": "The efficacy of dimethyl fumarate (DMF) in acute monophasic models of experimental autoimmune encephalomyelitis (EAE) can be determined in a pilot experiment.\nFemale Lewis rats are immunized with an emulsion of myelin basic protein (MBP) from Guinea pig in complete Freund's adjuvant. A total of 200 micrograms of MBP is injected per rat at two sites subcutaneously (right paw and base of tail). Within 10 days the rats develop signs of paralysis which will be graded on a scale from 0 to 15 assessing the tail and each limb individually according to the method originally described by Weaver A. et al., FASEB J., 2005, 19(12): 1668-1670. The disease takes an acute monophasic course and is self-remitting. Usually by day 21 clinical scores reach values below 3.0.\nGroups of 10 to 14 rats are dosed starting at the day of disease induction (day 0) with different doses of DMF in the range between 40 and 160 mg/kg once daily (q.d.). Clinical scores are assessed on a daily basis and disease development is compared between vehicle-treated rats and rats receiving DMF (vehicle: 0.5% Methylcellulose/0.5% Tween® 80). In parallel, body weights of the rats are monitored on a daily basis to follow general health. The experiment is terminated at day 21 whereupon hematology can be measured.\nPlasma samples can be taken for compound concentration determination and for the measurement of protein markers. […]"}, "[3]": {"tested_on": "peripheral blood lymphocytes", "conditions": "oral administration; cited from earlier work"}, "[4]": {"tested_on": "lymphocyte count in peripheral blood", "assay": "ponesimod pilot experiment, lymphocyte count in peripheral blood", "type": "in vivo", "conditions": "second pilot experiment, healthy female Lewis rats, dose 100 mg/kg", "method": "In parallel to the measurement of efficacy of DMF in the EAE model, a second pilot experiment is required. Healthy female Lewis rats will receive ponesimod at different doses in the range from 0.3 to 100 mg/kg. The goal is to assess the dose-effect relationship of ponesimod on lymphocyte count in peripheral blood in this strain of rat."}, "[5]": {"tested_on": "moderate to severe chronic plaque psoriasis; relapsing-remitting multiple sclerosis", "conditions": "patients with moderate to severe chronic plaque psoriasis and with relapsing-remitting multiple sclerosis; cited from earlier work"}}, "note": "Where a name gives a salt, the structure may show the parent alone.", "data": [{"smiles": "COC(=O)/C=C/C(=O)OC", "note": "[DMF, dimethyl fumarate]", "values": [{"measurement": "effect on clinical score from day 16 onwards", "setting": "[1]; from day 16 onwards", "result": "no effect on clinical score anymore"}, {"measurement": "effect on clinical course of EAE (clinical score)", "setting": "[1]", "result": "moderate effect during the ascending phase of the disease"}, {"measurement": "efficacy on EAE scores", "setting": "[2]", "result": "partial efficacy between none and strongest efficacy"}]}, {"smiles": "CCC/N=C1\\S/C(=C\\c2ccc(OC[C@H](O)CO)c(Cl)c2)C(=O)N1c1ccccc1C", "note": "[ponesimod, (R)-5-[3-chloro-4-(2,3-dihydroxy-propoxy)-benz[Z]ylidene]-2-([Z]-propylimino)-3-o-tolyl-thiazolidin-4-one]", "values": [{"measurement": "number of peripheral blood lymphocytes", "setting": "[3]", "result": "consistent, sustained, and dose-dependent reduction"}, {"measurement": "efficacy on lymphocyte count reduction", "setting": "[4]", "result": "full efficacy on lymphocyte count reduction"}, {"measurement": "clinical benefit in phase II trials", "setting": "[5]", "result": "has shown clinical benefit"}, {"measurement": "effect on clinical course of EAE (clinical score)", "setting": "[1]", "result": "marked and statistically significant effect"}]}]}
